Source: US12378294B2, “IL-4 derived peptides for use in the treatment of obesity” (SERODUS APS, priority 2022, dated 2025)
Several values for one entry are separate records, joined by “and”; a condition that tells them apart may be missing. Equal values may be shown once. Where no end group is shown, it is not given here.

Assays:
[1] = target: T1, type I IL-4R (Homo sapiens, UniProt P24394); conditions: cited from earlier work
T1 sequence (P24394 26-825): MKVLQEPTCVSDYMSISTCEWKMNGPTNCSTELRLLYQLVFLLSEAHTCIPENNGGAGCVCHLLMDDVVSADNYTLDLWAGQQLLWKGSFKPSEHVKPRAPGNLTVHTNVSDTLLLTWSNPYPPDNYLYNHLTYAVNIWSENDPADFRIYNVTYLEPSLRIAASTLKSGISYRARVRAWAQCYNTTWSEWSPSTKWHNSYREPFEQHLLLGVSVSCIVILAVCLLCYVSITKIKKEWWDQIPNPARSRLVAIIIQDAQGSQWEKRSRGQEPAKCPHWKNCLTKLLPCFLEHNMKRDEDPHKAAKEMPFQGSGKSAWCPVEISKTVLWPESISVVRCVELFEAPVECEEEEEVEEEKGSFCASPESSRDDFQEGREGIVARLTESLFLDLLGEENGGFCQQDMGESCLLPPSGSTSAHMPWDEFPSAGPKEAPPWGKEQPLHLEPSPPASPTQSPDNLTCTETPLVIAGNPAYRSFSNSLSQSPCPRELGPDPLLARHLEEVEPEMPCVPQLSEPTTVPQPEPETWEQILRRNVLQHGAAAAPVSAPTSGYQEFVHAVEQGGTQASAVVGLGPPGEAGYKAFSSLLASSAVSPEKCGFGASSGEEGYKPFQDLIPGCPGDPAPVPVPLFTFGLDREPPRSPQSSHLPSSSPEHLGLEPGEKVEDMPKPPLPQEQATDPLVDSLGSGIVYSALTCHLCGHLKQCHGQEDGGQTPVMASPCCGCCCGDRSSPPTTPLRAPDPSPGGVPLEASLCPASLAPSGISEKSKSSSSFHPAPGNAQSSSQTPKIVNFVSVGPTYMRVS

[2] = system: macrophages; conditions: cited from earlier work
[3] = target: T2, IL-4 receptors (Homo sapiens, UniProt P24394); conditions: cited from earlier work
T2 sequence (P24394 26-825): T1 sequence (P24394 26-825)

[4] = target: T3, type II IL-4R (Homo sapiens, UniProt P24394); conditions: cited from earlier work
T3 sequence (P24394 26-825): T1 sequence (P24394 26-825)

[5] = system: female mice (BKS.Cg-Dock7m+/+Leptin db/db BLKS); test: Effect of an IL-4 derived peptide on body weight in db/db mice; assay type: in vivo; conditions: for Effect on weight / weight gain compared to vehicle: treatment group vs vehicle/placebo group, 77 days s.c. once daily
Protocol: 30 female mice (BKS.Cg-Dock7m+/+Leptin db/db BLKS, 5 weeks of age) were transferred to the Gubra Research animal unit in Denmark. Throughout the habituation and study period, the animals were housed in a light-, temperature-, and -humidity-controlled room with free access to food and water. All animal experiments were conducted in accordance with Gubra bioethical guidelines, which are fully compliant with internationally accepted principles for the care and use of laboratory animals. The body weight of the animals was recorded at the start of the study (baseline), on day 13, day 27, day 34, day 43, day 60 and day 77 (termination of study).
Compound A was prepared using standard solid phase peptide synthesis (SPPS) procedures. Compound A was provided by Phlogo ApS, Copenhagen, Denmark (10 mg/ml miliQ water diluted to the dose formulations). Vehicle was miliQ:PBS 1:5.
The mice were randomized into a vehicle group (n=15) and a 10 mg/kg Compound A (n=15). The compound as well as the vehicle was administered subcutaneously once daily. On day 27, the dose was lowered to 5 mg/kg Compound A (n=15), and on day 43, the dose was lowered to 2.5 mg/kg Compound A (n=15).

AQFHRHKQLIRFLKRA [SEQ ID NO:1, 16-residue IL-4 derived peptide, variant of AA71-AA86 of IL-4]
Activity on type I IL-4R [1]: high affinity partial agonist
Macrophage activation [2]: inhibiting macrophage activation
Binding to the IL-4 receptors [3]: capable of binding to the IL-4 receptors
Activity on type II IL-4R [4]: antagonist

Compound A: dimer of SEQ ID NO:1 (AQFHRHKQLIRFLKRA) connected through a linker (lysine-beta-alanine) at the C-terminals (also: dimer of two chains joined at the C-termini through a Lys-βAla linker)
Δ Weight ([5]; individual animals 1-15 of treatment group, day 77 minus baseline, s.c. once daily, 10 then 5 then 2.5 mg/kg): 1.80 g and -1.60 g and 7.30 g and 4.40 g and 4.50 g and 2.70 g and -1.90 g and 8.00 g and 4.20 g and 11.20 g and 11.40 g and 3.20 g and -1.30 g and 0.90 g and 1.40 g
Weight at day 77 ([5]; individual animals 1-15 of treatment group, s.c. once daily, 10 mg/kg, lowered to 5 mg/kg on day 27 and 2.5 mg/kg on day 43, day 77): 54.30 g (2×) and 47.30 g and 48.40 g and 52.50 g and 59.10 g and 47.60 g and 37.50 g and 57.30 g and 51.80 g and 58.10 g and 59.40 g and 52.40 g and 49.20 g and 49.40 g
Δ Weight (g), mean ([5]; mean of treatment group (n=15), baseline to day 77, s.c. once daily, 10 then 5 then 2.5 mg/kg, placebo mean 5.76): 3.51 g
Weight at day 77 (g), mean ([5]; mean of treatment group (n=15), s.c. once daily, 10 then 5 then 2.5 mg/kg, placebo mean 50.64): 48.66 g
Weight increase during the study period ([5]; treatment group average, baseline to day 77, placebo 12.8%): 7.8%
Effect on weight / weight gain compared to vehicle [5]: significantly decreased the weight
Effect on weight / weight gain compared to vehicle ([5]; listed as compound A): decreased the weight gain
